From ChEMBL document CHEMBL1144419, “N-terminal fatty acylated His-dPhe-Arg-Trp-NH(2) tetrapeptides: influence of fatty acid chain length on potency and selectivity at the mouse melanocortin receptors and human melanocytes” (J Med Chem, 2005)

Assays:
Type in all cases: functional
Melanocortin receptor 3 = Melanocortin receptor 3 (Mus musculus, UniProt P33033); test: In vitro agonist potency for Mouse Melanocortin 3 receptor
[1] = target: Melanocyte-stimulating hormone receptor (Mus musculus, UniProt Q01727); test: In vitro agonist potency for Mouse Melanocortin 1 receptor
Melanocortin receptor 4 = Melanocortin receptor 4 (Mus musculus, UniProt P56450); test: In vitro agonist potency for Mouse Melanocortin 4 receptor
Melanocortin receptor 5 = Melanocortin receptor 5 (Mus musculus, UniProt P41149); test: In vitro agonist potency for Mouse Melanocortin 5 receptor
Chain of Melanocortin receptor 5 (P41149 whole entry): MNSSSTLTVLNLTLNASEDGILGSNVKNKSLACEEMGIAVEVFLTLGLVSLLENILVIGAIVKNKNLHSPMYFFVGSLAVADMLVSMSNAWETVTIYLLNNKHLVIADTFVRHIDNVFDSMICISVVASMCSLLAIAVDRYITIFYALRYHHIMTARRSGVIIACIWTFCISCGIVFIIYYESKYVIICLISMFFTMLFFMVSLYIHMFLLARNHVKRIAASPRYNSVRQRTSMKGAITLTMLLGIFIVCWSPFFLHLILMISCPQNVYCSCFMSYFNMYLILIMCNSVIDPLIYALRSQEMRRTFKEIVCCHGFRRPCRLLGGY

Chain of Melanocortin receptor 4 (P56450 whole entry): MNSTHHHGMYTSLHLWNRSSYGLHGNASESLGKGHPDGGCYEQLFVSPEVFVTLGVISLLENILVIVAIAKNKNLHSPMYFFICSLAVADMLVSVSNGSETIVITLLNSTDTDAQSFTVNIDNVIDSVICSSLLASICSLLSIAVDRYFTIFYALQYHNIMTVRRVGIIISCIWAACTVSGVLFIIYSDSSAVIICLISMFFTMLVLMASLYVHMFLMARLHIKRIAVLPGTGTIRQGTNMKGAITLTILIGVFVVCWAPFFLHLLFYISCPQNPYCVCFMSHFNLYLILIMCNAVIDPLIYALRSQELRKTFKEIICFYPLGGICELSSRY
Chain of Melanocyte-stimulating hormone receptor (Q01727 whole entry): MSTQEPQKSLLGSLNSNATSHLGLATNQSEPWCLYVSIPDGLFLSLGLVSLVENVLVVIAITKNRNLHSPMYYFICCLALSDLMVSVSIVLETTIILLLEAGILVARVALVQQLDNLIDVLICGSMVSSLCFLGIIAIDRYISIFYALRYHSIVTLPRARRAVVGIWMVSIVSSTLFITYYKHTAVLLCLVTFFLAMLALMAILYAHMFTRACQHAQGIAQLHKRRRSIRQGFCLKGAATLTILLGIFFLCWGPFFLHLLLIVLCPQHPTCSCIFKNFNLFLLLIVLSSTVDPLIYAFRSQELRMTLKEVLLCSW
Chain of Melanocortin receptor 3 (P33033 whole entry): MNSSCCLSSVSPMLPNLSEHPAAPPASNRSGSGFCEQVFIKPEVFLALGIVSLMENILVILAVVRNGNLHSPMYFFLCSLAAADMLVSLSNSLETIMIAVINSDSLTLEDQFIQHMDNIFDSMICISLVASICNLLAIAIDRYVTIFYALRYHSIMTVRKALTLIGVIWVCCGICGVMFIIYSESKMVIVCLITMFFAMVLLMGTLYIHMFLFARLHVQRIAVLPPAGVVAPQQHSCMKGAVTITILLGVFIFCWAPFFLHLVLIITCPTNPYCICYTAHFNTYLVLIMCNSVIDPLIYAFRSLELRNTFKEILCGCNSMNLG

SMILES | EC50 (Melanocortin receptor 3) [nM] | EC50 [1] [nM] | EC50 (Melanocortin receptor 4) [nM] | EC50 (Melanocortin receptor 5) [nM]
CCCCCCCCCCCCC(=O)N[C@@H](Cc1cnc[nH]1)C(=O)N[C@H](Cc1ccccc1)C(=O)N[C@@H](CCCNC(=N)N)C(=O)N[C@@H](Cc1c[nH]c2ccccc12)C(N)=O | 139 | 0.94 | 20.6 | 4.43
CCCCCCCCCCCCCCCCC(=O)N[C@@H](Cc1c[nH]cn1)C(=O)N[C@H](Cc1ccccc1)C(=O)N[C@@H](CCCN=C(N)N)C(=O)N[C@@H](Cc1c[nH]c2ccccc12)C(N)=O | 266 | 0.72 | 21.4 | 2.82
CCCCCCCCCCCCCCC(=O)N[C@@H](Cc1c[nH]cn1)C(=O)N[C@H](Cc1ccccc1)C(=O)N[C@@H](CCCN=C(N)N)C(=O)N[C@@H](Cc1c[nH]c2ccccc12)C(N)=O | 134 | 2.07 | 13.2 | 3.02
CCCCCCCCCCC(=O)N[C@@H](Cc1cnc[nH]1)C(=O)N[C@H](Cc1ccccc1)C(=O)N[C@@H](CCCNC(=N)N)C(=O)N[C@@H](Cc1c[nH]c2ccccc12)C(N)=O | 102 | 2.8 | 19 | 10
CCCCCCCCCCCCCCCC(=O)N[C@@H](Cc1cnc[nH]1)C(=O)N[C@H](Cc1ccccc1)C(=O)N[C@@H](CCCNC(=N)N)C(=O)N[C@@H](Cc1c[nH]c2ccccc12)C(N)=O | 154 | 0.99 | 26.6 | 2.99
N=C(N)NCCC[C@H](NC(=O)[C@@H](Cc1ccccc1)NC(=O)[C@@H](N)Cc1cnc[nH]1)C(=O)N[C@@H](Cc1c[nH]c2ccccc12)C(N)=O | 250 | 67 | 18.5 | 2.78
CCCCCCCCCC(=O)N[C@@H](Cc1c[nH]cn1)C(=O)N[C@H](Cc1ccccc1)C(=O)N[C@@H](CCCN=C(N)N)C(=O)N[C@@H](Cc1c[nH]c2ccccc12)C(N)=O | 44.8 | 3.34 | 14.4 | 4.83

Now those with a lower EC50 (Melanocortin receptor 4), led by results:

EC50 (Melanocortin receptor 3) [nM] | EC50 [1] [nM] | EC50 (Melanocortin receptor 4) [nM] | EC50 (Melanocortin receptor 5) [nM] | SMILES
– | – | 10.7 | – | CC(=O)N[C@@H](Cc1cnc[nH]1)C(=O)N[C@H](Cc1ccccc1)C(=O)N[C@@H](CCCN=C(N)N)C(=O)N[C@@H](Cc1c[nH]c2ccccc12)C(N)=O
220 | 0.58 | 10.5 | 3.39 | CCCCCCCCCCCCCC(=O)N[C@@H](Cc1c[nH]cn1)C(=O)N[C@H](Cc1ccccc1)C(=O)N[C@@H](CCCN=C(N)N)C(=O)N[C@@H](Cc1c[nH]c2ccccc12)C(N)=O
9.29 | 0.33 | 2.52 | 0.57 | CCCCCCCC(=O)N[C@@H](Cc1c[nH]cn1)C(=O)N[C@H](Cc1ccccc1)C(=O)N[C@@H](CCCN=C(N)N)C(=O)N[C@@H](Cc1c[nH]c2ccccc12)C(N)=O
5.1 | 0.4 | 1.14 | 0.88 | CCCCCCCCC(=O)N[C@@H](Cc1cnc[nH]1)C(=O)N[C@H](Cc1ccccc1)C(=O)N[C@@H](CCCNC(=N)N)C(=O)N[C@@H](Cc1c[nH]c2ccccc12)C(N)=O
